Experimental data reported in the Kinase Knowledgebase extract (Sharma et al. 2016).

molecular target: PIK3CA (human) (UniProt P42336); assay: Assessment of PIK3CA Kinase Activity
Sequence (P42336 whole entry, looked up): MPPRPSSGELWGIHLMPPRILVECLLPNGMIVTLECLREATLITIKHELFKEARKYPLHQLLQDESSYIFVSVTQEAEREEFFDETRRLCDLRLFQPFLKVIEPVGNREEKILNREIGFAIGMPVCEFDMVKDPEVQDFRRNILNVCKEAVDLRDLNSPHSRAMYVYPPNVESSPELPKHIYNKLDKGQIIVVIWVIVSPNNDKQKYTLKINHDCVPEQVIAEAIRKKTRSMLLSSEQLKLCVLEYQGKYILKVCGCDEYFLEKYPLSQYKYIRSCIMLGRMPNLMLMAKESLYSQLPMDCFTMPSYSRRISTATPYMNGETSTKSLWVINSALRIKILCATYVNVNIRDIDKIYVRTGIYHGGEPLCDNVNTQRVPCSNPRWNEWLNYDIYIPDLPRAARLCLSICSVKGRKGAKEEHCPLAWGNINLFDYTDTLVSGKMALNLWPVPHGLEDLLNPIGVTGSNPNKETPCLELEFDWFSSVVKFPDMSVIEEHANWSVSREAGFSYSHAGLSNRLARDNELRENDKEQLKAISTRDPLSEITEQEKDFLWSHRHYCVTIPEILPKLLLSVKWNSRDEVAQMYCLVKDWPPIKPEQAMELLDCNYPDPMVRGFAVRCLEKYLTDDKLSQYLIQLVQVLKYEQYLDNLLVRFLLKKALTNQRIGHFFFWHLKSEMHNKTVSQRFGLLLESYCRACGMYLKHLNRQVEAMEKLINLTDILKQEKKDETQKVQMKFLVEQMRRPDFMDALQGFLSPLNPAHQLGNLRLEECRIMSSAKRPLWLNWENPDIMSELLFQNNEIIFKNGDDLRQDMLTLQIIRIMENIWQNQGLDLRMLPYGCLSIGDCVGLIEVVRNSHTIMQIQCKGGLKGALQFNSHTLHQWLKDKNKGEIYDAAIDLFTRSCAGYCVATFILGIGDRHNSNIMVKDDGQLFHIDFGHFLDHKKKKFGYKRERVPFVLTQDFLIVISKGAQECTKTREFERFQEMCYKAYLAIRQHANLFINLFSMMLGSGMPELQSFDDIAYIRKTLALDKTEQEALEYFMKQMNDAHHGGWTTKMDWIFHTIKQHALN

SMILES | IC50 [nM]
Nc1nc2c(c(-c3ccc(F)cc3)n1)-c1cc(S(=O)(=O)N3CCOCC3)c(Cl)cc1CC2 | 6.3
Nc1nc2c(c(-c3ccccc3)n1)-c1cc(S(=O)(=O)N3CCOCC3)c(Cl)cc1CC2 | 3.2
CC(C)S(=O)(=O)Nc1cc2c(cc1Cl)CCc1nc(N)nc(-c3ccc(F)cc3)c1-2 | 32
CNC(=O)c1cccc(-c2nc(N)nc3c2-c2cc(NS(=O)(=O)c4ccc(F)cc4F)c(Cl)cc2CC3)c1 | 4
Nc1nc2c(c(-c3ccccc3)n1)-c1cc(NS(=O)(=O)c3ccoc3)c(Cl)cc1CC2 | 16
Cn1cc(-c2nc(N)nc3c2-c2cc(NS(=O)(=O)c4ccccc4)c(Cl)cc2CC3)cn1 | 5
CC(=O)Nc1cccc(-c2nc(N)nc3c2-c2cc(NS(=O)(=O)c4ccc(F)cc4F)c(Cl)cc2CC3)c1 | 16
Nc1nc2c(c(-c3cccc(S(=O)(=O)N4CCOCC4)c3)n1)-c1cc(NS(=O)(=O)c3ccc(F)cc3F)c(Cl)cc1CC2 | 7.9
Nc1nc2c(c(-c3cccnc3)n1)-c1cc(S(=O)(=O)N3CCOCC3)c(Cl)cc1CC2 | 20
Nc1nc2c(c(-c3ccccc3)n1)-c1cc(NC(=O)c3ccc(F)cc3F)c(Cl)cc1CC2 | 1580
Nc1nc2c(c(-c3ccc(F)cc3)n1)-c1cc(NS(=O)(=O)c3ccc(F)cc3F)c(Cl)cc1CC2 | 2.5
CC(C)S(=O)(=O)Nc1cc2c(cc1Cl)CCc1nc(N)nc(-c3ccccc3)c1-2 | 25
Nc1nc2c(c(-c3ccncc3)n1)-c1cc(S(=O)(=O)N3CCOCC3)c(Cl)cc1CC2 | 10
CN(C)S(=O)(=O)c1cccc(-c2nc(N)nc3c2-c2cc(NS(=O)(=O)c4ccc(F)cc4F)c(Cl)cc2CC3)c1 | 3.2
Nc1nc2c(c(=O)[nH]1)-c1ccc(Cl)cc1CC2 | 5010
Nc1nc2c(c(-c3ccncc3)n1)-c1cc(NS(=O)(=O)c3cccc(Cl)c3)c(Cl)cc1CC2 | 2.5
COc1cccc(-c2nc(N)nc3c2-c2cc(NS(=O)(=O)c4ccc(F)cc4F)c(Cl)cc2CC3)c1 | 5
CC(=O)Nc1ccc(-c2nc(N)nc3c2-c2cc(S(=O)(=O)N4CCOCC4)c(Cl)cc2CC3)cc1 | 3.2
CC(=O)Nc1cccc(-c2nc(N)nc3c2-c2cc(S(=O)(=O)N4CCOCC4)c(Cl)cc2CC3)c1 | 25
CC(=O)Nc1ccc(-c2nc(N)nc3c2-c2cc(NS(=O)(=O)c4ccc(F)cc4F)c(Cl)cc2CC3)cc1 | 2.5
Nc1nc2c(c(-c3ccc(F)cc3)n1)-c1cc(S(N)(=O)=O)c(Cl)cc1CC2 | 1.6
Nc1nc2c(c(-c3ccccc3F)n1)-c1cc(S(=O)(=O)N3CCOCC3)c(Cl)cc1CC2 | 13
CS(=O)(=O)c1ccc(-c2nc(N)nc3c2-c2cc(NS(=O)(=O)c4ccc(F)cc4F)c(Cl)cc2CC3)cc1 | 2.5

SMILES | IC50 [nM]
Nc1cccc(-c2nc(N)nc3c2-c2cc(S(=O)(=O)N4CCOCC4)c(Cl)cc2CC3)c1 | 6.3
COc1ccc(-c2nc(N)nc3c2-c2cc(NS(=O)(=O)c4ccc(F)cc4F)c(Cl)cc2CC3)cc1 | 2
Cc1ccc(-c2nc(N)nc3c2-c2cc(S(=O)(=O)N4CCOCC4)c(Cl)cc2CC3)cc1 | 4
Nc1nc2c(c(-c3ccc(S(=O)(=O)N4CCOCC4)cc3)n1)-c1cc(NS(=O)(=O)c3ccc(F)cc3F)c(Cl)cc1CC2 | 2.5
N#Cc1cccc(S(=O)(=O)Nc2cc3c(cc2Cl)CCc2nc(N)nc(-c4ccncc4)c2-3)c1 | 313
Nc1nc2c(c(-c3cccc(F)c3)n1)-c1cc(NS(=O)(=O)c3ccc(F)cc3F)c(Cl)cc1CC2 | 4
CN(C)S(=O)(=O)c1ccc(-c2nc(N)nc3c2-c2cc(NS(=O)(=O)c4ccc(F)cc4F)c(Cl)cc2CC3)cc1 | 2.5
NC(=O)c1cccc(-c2nc(N)nc3c2-c2cc(NS(=O)(=O)c4ccc(F)cc4F)c(Cl)cc2CC3)c1 | 2
Nc1nc2c(c(-c3cccnc3)n1)-c1cc(NS(=O)(=O)c3ccc(F)cc3F)c(Cl)cc1CC2 | 20
Cc1ccc([N+](=O)[O-])cc1S(=O)(=O)Nc1cc2c(cc1Cl)CCc1nc(N)nc(-c3ccncc3)c1-2 | 202
CNC(=O)c1ccc(-c2nc(N)nc3c2-c2cc(S(=O)(=O)N4CCOCC4)c(Cl)cc2CC3)cc1 | 7.9
Nc1nc2c(c(-c3ccncc3)n1)-c1cc(NS(=O)(=O)c3cccs3)c(Cl)cc1CC2 | 3.2
Cn1cc(-c2nc(N)nc3c2-c2cc(NS(=O)(=O)c4ccc(F)cc4F)c(Cl)cc2CC3)cn1 | 6.3
Nc1nc2c(c(-c3ccncc3)n1)-c1cc(NS(=O)(=O)c3ccc(F)cc3F)c(Cl)cc1CC2 | 1
Nc1nc2c(c(-c3ccc(F)cc3)n1)-c1cc(NS(=O)(=O)c3ccccc3)c(Cl)cc1CC2 | 13
Nc1nc2c(c(-c3ccccc3)n1)-c1cc(NS(=O)(=O)c3ccccc3)c(Cl)cc1CC2 | 13
NC(=O)c1ccc(-c2nc(N)nc3c2-c2cc(NS(=O)(=O)c4ccc(F)cc4F)c(Cl)cc2CC3)cc1 | 4
Nc1nc2c(c(-c3ccccc3)n1)-c1cc(NS(=O)(=O)c3ccc(F)cc3F)c(Cl)cc1CC2 | 4
N#Cc1ccc(S(=O)(=O)Nc2cc3c(cc2Cl)CCc2nc(N)nc(-c4ccncc4)c2-3)cc1 | 1.6
Nc1nc2c(c(-c3ccncc3)n1)-c1cc(NS(=O)(=O)c3ccccc3)c(Cl)cc1CC2 | 6.3
CS(=O)(=O)c1cccc(-c2nc(N)nc3c2-c2cc(NS(=O)(=O)c4ccc(F)cc4F)c(Cl)cc2CC3)c1 | 1.3
Nc1nc2c(c(-c3ccncc3)n1)-c1cc(NS(=O)(=O)c3ccc4ccccc4c3)c(Cl)cc1CC2 | 405
CNC(=O)c1ccc(-c2nc(N)nc3c2-c2cc(NS(=O)(=O)c4ccc(F)cc4F)c(Cl)cc2CC3)cc1 | 1.6
